Assay results published in patent US9951028B2, “Agricultural chemicals” (REDAG CROP PROTECTION LTD, priority 2013, dated 2018).

Experiments:
Assay type in all cases: in vivo
[1] = test system: garden cress, Lepidium sativum; test: Herbicidal efficacy screen, potter tower spray, necrosis assessed; details: 200 g/ha
Description: (§1) Compounds 22, 23 and 24 were screened for herbicidal efficacy against target plants: garden cress, Lepidium sativum, common chickweed, Stellaria media, and white mustard […] alba Plants were obtained as seeds and were grown to the 2-4 true leaf stage. Plants were grown under laboratory conditions, individually in seed trays. Each plant (in an approximately 3 cm diameter plug) was then detached from the tray for spraying. The compounds were screened at a range of five concentrations, diluted in acetone and TweenTM. A carrier only control was also conducted. Treatments were applied directly onto the plants, using a potter tower, at a specified application rate. One plant of each species was sprayed using a potter tower. The 3 different types of plants were placed on a 10 cm diameter platform directly beneath the potter sprayer and sprayed simultaneously. The growth of the plants and any Phytotoxicity effects were then assessed at intervals over 21 days, according to EPPO guideline PP1/135. Five replicas were performed for each treatment, for each species. In the tables below C represents a percentage increase in necrosis relative to the control of 0.1-50; B represents a percentage inhibition of 50-80; and A represents a percentage inhibition of 80-100.

[2] = test system: white mustard Sinapsis alba; test: as above
Description: as §1

[3] = test system: Abutilon theophrasti (China Jute); test: Herbicidal efficacy screen, corrected necrosis
Description: (§2) Plants were obtained as seeds and were grown to the 2-4 true leaf stage. Plants were grown under laboratory conditions, individually in seed trays. Each plant (in an approximately 3 cm diameter plug) was then detached from the tray for spraying. The compounds were screened at a range of five concentrations, diluted in acetone and Tween™. A carrier only control was also conducted. Treatments were applied directly onto the plants, using a potter tower, at a specified application rate. One plant of each species was sprayed using a potter tower. The 3 different types of plants were placed on a 10 cm diameter platform directly beneath the potter sprayer and sprayed simultaneously. The growth of the plants and any Phytotoxicity effects were then assessed at intervals over 21 days, according to EPPO guideline PP1/135. In the tables below C represents a percentage increase in necrosis relative to the control of 0.1-50; B represents a percentage inhibition of 50-80; and A represents a percentage inhibition of 80-100. Certain compounds of the invention were screened for herbicidal efficacy against target plants: Amaranthus retroflexus (redroot pigweed), Abutilon theophrasti (China Jute): Capsella bursa-pastoris, (shepherd's-purse) Echinochloa crus-galli, Hordeum vulgare (Barley),

[4] = test system: Amaranthus retroflexus (redroot pigweed); test: Herbicidal efficacy screen, corrected necrosis
Description: as §2

[5] = test system: Capsella bursa-pastoris, (shepherd's-purse); test: Herbicidal efficacy screen, corrected necrosis
Description: as §2

[6] = 12.5 g/ha, day 1 post application
[7] = 12.5 g/ha, day 7 post application
[8] = 25 g/ha, day 1 post application
[9] = 25 g/ha, day 7 post application
[10] = 50 g/ha, day 1 post application
[11] = 50 g/ha, day 7 post application
[12] = 100 g/ha, day 1 post application
[13] = 100 g/ha, day 7 post application
[14] = 6.25 g/ha, day 1 post application
[15] = 6.25 g/ha, day 7 post application

CC(C)C(C)S(=O)(=O)NCc1cc(-n2c(=O)cc(C(F)(F)F)n(C)c2=O)c(F)cc1Cl (centres unmarked) [Compound 24, N-[[2-Chloro-4-fluoro-5-[3-methyl-2,6-dioxo-4-(trifluoromethyl)pyrimidin-1-yl]phenyl]methyl]-3-methyl-butane-2-sulfonamide]
Average of necrosis ([1]; day 5 post application): C (C represents a percentage increase in necrosis relative to the control of 0.1-50)
Average of necrosis ([1]; day 7 post application): C (C represents a percentage increase in necrosis relative to the control of 0.1-50)
Average of necrosis ([1]; day 10 post application): B (B represents a percentage inhibition of 50-80)
Average of necrosis [2, 6]: C (C represents a percentage increase in necrosis relative to the control of 0.1-50)
Average of necrosis ([2]; 12.5 g/ha, day 2 post application): C (C represents a percentage increase in necrosis relative to the control of 0.1-50)
Average of necrosis ([2]; 12.5 g/ha, day 3 post application): C (C represents a percentage increase in necrosis relative to the control of 0.1-50)
Average of necrosis ([2]; 12.5 g/ha, day 4 post application): C (C represents a percentage increase in necrosis relative to the control of 0.1-50)
Average of necrosis ([2]; 12.5 g/ha, day 5 post application): C (C represents a percentage increase in necrosis relative to the control of 0.1-50)
Average of necrosis [2, 7]: C (C represents a percentage increase in necrosis relative to the control of 0.1-50)
Average of necrosis ([2]; 12.5 g/ha, day 10 post application): C (C represents a percentage increase in necrosis relative to the control of 0.1-50)
Average of necrosis [2, 8]: C (C represents a percentage increase in necrosis relative to the control of 0.1-50)
Average of necrosis ([2]; 25 g/ha, day 2 post application): C (C represents a percentage increase in necrosis relative to the control of 0.1-50)
Average of necrosis ([2]; 25 g/ha, day 3 post application): C (C represents a percentage increase in necrosis relative to the control of 0.1-50)
Average of necrosis ([2]; 25 g/ha, day 4 post application): C (C represents a percentage increase in necrosis relative to the control of 0.1-50)
Average of necrosis ([2]; 25 g/ha, day 5 post application): C (C represents a percentage increase in necrosis relative to the control of 0.1-50)
Average of necrosis [2, 9]: C (C represents a percentage increase in necrosis relative to the control of 0.1-50)
Average of necrosis ([2]; 25 g/ha, day 10 post application): C (C represents a percentage increase in necrosis relative to the control of 0.1-50)
Average of necrosis [2, 10]: C (C represents a percentage increase in necrosis relative to the control of 0.1-50)
Average of necrosis ([2]; 50 g/ha, day 2 post application): C (C represents a percentage increase in necrosis relative to the control of 0.1-50)
Average of necrosis ([2]; 50 g/ha, day 3 post application): C (C represents a percentage increase in necrosis relative to the control of 0.1-50)
Average of necrosis ([2]; 50 g/ha, day 4 post application): C (C represents a percentage increase in necrosis relative to the control of 0.1-50)
Average of necrosis ([2]; 50 g/ha, day 5 post application): C (C represents a percentage increase in necrosis relative to the control of 0.1-50)
Average of necrosis [2, 11]: C (C represents a percentage increase in necrosis relative to the control of 0.1-50)
Average of necrosis ([2]; 50 g/ha, day 10 post application): C (C represents a percentage increase in necrosis relative to the control of 0.1-50)
Average of necrosis [2, 12]: C (C represents a percentage increase in necrosis relative to the control of 0.1-50)
Average of necrosis ([2]; 100 g/ha, day 2 post application): C (C represents a percentage increase in necrosis relative to the control of 0.1-50)
Average of necrosis ([2]; 100 g/ha, day 3 post application): C (C represents a percentage increase in necrosis relative to the control of 0.1-50)
Average of necrosis ([2]; 100 g/ha, day 4 post application): C (C represents a percentage increase in necrosis relative to the control of 0.1-50)
Average of necrosis ([2]; 100 g/ha, day 5 post application): C (C represents a percentage increase in necrosis relative to the control of 0.1-50)
Average of necrosis [2, 13]: C (C represents a percentage increase in necrosis relative to the control of 0.1-50)
Average of necrosis ([2]; 100 g/ha, day 10 post application): C (C represents a percentage increase in necrosis relative to the control of 0.1-50)
Average of necrosis ([2]; 200 g/ha, day 1 post application): C (C represents a percentage increase in necrosis relative to the control of 0.1-50)
Average of necrosis ([2]; 200 g/ha, day 2 post application): C (C represents a percentage increase in necrosis relative to the control of 0.1-50)
Average of necrosis ([2]; 200 g/ha, day 3 post application): C (C represents a percentage increase in necrosis relative to the control of 0.1-50)
Average of necrosis ([2]; 200 g/ha, day 4 post application): C (C represents a percentage increase in necrosis relative to the control of 0.1-50)
Average of necrosis ([2]; 200 g/ha, day 5 post application): C (C represents a percentage increase in necrosis relative to the control of 0.1-50)
Average of necrosis ([2]; 200 g/ha, day 7 post application): C (C represents a percentage increase in necrosis relative to the control of 0.1-50)
Average of necrosis ([2]; 200 g/ha, day 10 post application): C (C represents a percentage increase in necrosis relative to the control of 0.1-50)
Average of corrected necrosis [3, 14]: 0%
Average of corrected necrosis [3, 15]: A (A represents a percentage inhibition of 80-100)
Average of corrected necrosis [3, 6]: 0%
Average of corrected necrosis [3, 7]: A (A represents a percentage inhibition of 80-100)
Average of corrected necrosis [3, 8]: 0%
Average of corrected necrosis [3, 9]: A (A represents a percentage inhibition of 80-100)
Average of corrected necrosis [3, 10]: 0%
Average of corrected necrosis [3, 11]: A (A represents a percentage inhibition of 80-100)
Average of corrected necrosis [3, 12]: C (C represents a percentage increase in necrosis relative to the control of 0.1-50)
Average of corrected necrosis [3, 13]: A (A represents a percentage inhibition of 80-100)
Average of corrected necrosis [4, 14]: C (C represents a percentage increase in necrosis relative to the control of 0.1-50)
Average of corrected necrosis [4, 15]: A (A represents a percentage inhibition of 80-100)
Average of corrected necrosis [4, 6]: C (C represents a percentage increase in necrosis relative to the control of 0.1-50)
Average of corrected necrosis [4, 7]: A (A represents a percentage inhibition of 80-100)
Average of corrected necrosis [4, 8]: C (C represents a percentage increase in necrosis relative to the control of 0.1-50)
Average of corrected necrosis [4, 9]: A (A represents a percentage inhibition of 80-100)
Average of corrected necrosis [4, 10]: C (C represents a percentage increase in necrosis relative to the control of 0.1-50)
Average of corrected necrosis [4, 11]: A (A represents a percentage inhibition of 80-100)
Average of corrected necrosis [4, 12]: C (C represents a percentage increase in necrosis relative to the control of 0.1-50)
Average of corrected necrosis [4, 13]: A (A represents a percentage inhibition of 80-100)
Average of corrected necrosis [5, 14]: C (C represents a percentage increase in necrosis relative to the control of 0.1-50)
Average of corrected necrosis [5, 15]: A (A represents a percentage inhibition of 80-100)
Average of corrected necrosis [5, 6]: 0%
Average of corrected necrosis [5, 7]: B (B represents a percentage inhibition of 50-80)
Average of corrected necrosis [5, 8]: C (C represents a percentage increase in necrosis relative to the control of 0.1-50)
Average of corrected necrosis [5, 9]: A (A represents a percentage inhibition of 80-100)
Average of corrected necrosis [5, 10]: C (C represents a percentage increase in necrosis relative to the control of 0.1-50)
Average of corrected necrosis [5, 11]: A (A represents a percentage inhibition of 80-100)
Average of corrected necrosis [5, 12]: C (C represents a percentage increase in necrosis relative to the control of 0.1-50)
Average of corrected necrosis [5, 13]: A (A represents a percentage inhibition of 80-100)
